Measured values reported in patent US10994018B2, “Long-acting palmitic acid-conjugated GnRH derivative, and pharmaceutical composition containing same” (priority 2017, dated 2021).
Like-named read-outs stand apart in the source and are kept apart here. Blank lines part the entries; values can stand above or below the compound they belong to. Where a SMILES comes first, the peptide text is derived from it. [ ]: non-standard residue; d: D form. The star is where a group is joined. Palmitoyl = CCCCCCCCCCCCCCCC(=O)*

Assays:
[1] = tested on: prostate cancer cell line DU-145; experiment: Cell death assay (Cell Counting Kit-8) on prostate cancer cells; assay type: cell-based
Method: GnRH derivatives are clinically applied to the treatment of diseases including breast cancer, prostate cancer, endometriosis, central precocious puberty, and the like. The DU-145 cell line, which is a type of prostate cancer cells, was cultured in T75 flasks containing an adequate amount of RPIM 1640 culture medium (containing 10% FBS, penicillin/streptomycin, and 1% non-essential amino acids) in a sterile incubator having 5% CO2/95% air at 37° C. Cell death assay was performed using the Cell Counting Kit-8 (CCK-8, manufactured by DOJINDO). The […] cells were separated from the T75 flasks by trypsinization treatment and transferred to 96-well plates at a density of 1×10^4 cells/well, followed by incubation for one hour for attachment. Subsequently, the cells were treated with various concentrations of GnRH or GnRH derivatives, and control reagents. Specifically, 1% DMSO was used as a negative control for cell death while 0.1% SDS served as a positive control. After 48 hours of incubation, the existing culture medium was removed, and 100 μL of fresh culture medium and 10 μL of CCK-8 solution were applied to each well. Again, after 48 hours of incubation, the medium solution was replaced by 100 μL of fresh culture medium and 10 μL of CCK-8 solution. The cells were incubated for 4 hours, and then the absorbance was measured at 450 nm to assess cell viability.

[2] = Blood concentration and pharmacokinetics after single subcutaneous administration to rats (LC/MSMS); assay type: in vivo, female SD rats; details: rat
Method: Before administration and at 0.5, 1, 2, and 6 hours and on days 1, 3, 7, 10, 14, 21, and 28 after administration, blood samples were taken from the tail vein of the rats and measured for the blood concentrations of Leuprolide and GnRH derivatives, using LC/MSMS. If the concentration reached about 4 ng/mL at a specific time point, no measurements were further made for the next time point. The measurement results are graphically depicted in FIGS. 4 to 6. Based on the results, pharmacokinetic analysis was carried out by calculating the half-life (t1/2), clearance rate (CL), volume of distribution (Vd), time to reach the maximum concentration following drug administration (Tmax), maximum concentration following drug administration (Cmax), and systemic exposure to drug (AUCt). The analysis results are as follows.

[3] = cited from earlier work
[4] = emulsion; same dose (Peng et al., 2010); cited from earlier work
[5] = female, SD, in vivo, sc, 12.5 mg/kg
[6] = female, SD, in vivo, sc, 12.5 mg/kg, blood concentration, Mean

Compound: CCCCCCCCCCCCOS(=O)(=O)[O-].[Na+] [0.1% SDS, reference compound]
Viability relative to control (%) ([1]; DU-145 cells, positive control at 0.1%): 21.7%

level at 0.5 h ([2]; female, SD, blood, sc, 12.5 mg/kg, s.c. once 12.5 mg/kg, 0.5 hr., read-out: blood concentration, Mean): 11.8 ng/mL | level at 1 h ([2]; female, SD, blood, sc, 12.5 mg/kg, s.c. once 12.5 mg/kg, 1 hr., read-out: blood concentration, Mean): 16.9 ng/mL | level at 2 h ([2]; female, SD, blood, sc, 12.5 mg/kg, s.c. once 12.5 mg/kg, 2 hr., read-out: blood concentration, Mean): 29.1 ng/mL | level at 6 h ([2]; female, SD, blood, sc, 12.5 mg/kg, s.c. once 12.5 mg/kg, 6 hr., read-out: blood concentration, Mean): 52.2 ng/mL | level at 24 h ([2]; female, SD, blood, sc, 12.5 mg/kg, s.c. once 12.5 mg/kg, 1 day): 45 ng/mL | level at 168 h ([2]; female, SD, blood, sc, 12.5 mg/kg, s.c. once 12.5 mg/kg, 7 days): 11.9 ng/mL | level at 240 h ([2]; female, SD, blood, sc, 12.5 mg/kg, s.c. once 12.5 mg/kg, 10 days): 8.18 ng/mL | level at 336 h ([2]; female, SD, blood, sc, 12.5 mg/kg, s.c. once 12.5 mg/kg, 14 days): 4.35 ng/mL | CL (clearance rate) ([2]; s.c. once 12.5 mg/kg): 0.051 (mg/kg)/(ng/ml)/day | Vd (volume of distribution) ([2]; s.c. once 12.5 mg/kg): 0.351 (mg/kg)/(ng/ml)
Compound: CCCCCCCCCCCCCCCC(=O)N[C@@H](CCC(N)=O)C(=O)N[C@@H](Cc1c[nH]cn1)C(=O)N[C@@H](Cc1c[nH]c2ccccc12)C(=O)N[C@@H](CO)C(=O)N[C@@H](Cc1ccc(O)cc1)C(=O)N[C@H](CC(C)C)C(=O)N[C@@H](CC(C)C)C(=O)N[C@@H](CCCNC(=N)N)C(=O)N1CCC[C@H]1C(=O)NCC [Derivative P2, Palmitate-Gln-His-Trp-Ser-Tyr-DLeu-Leu-Arg-Pro-NHEt] (Palmitoyl-QHWSY[dL]LRP-NHEt)
fold greater cytotoxic effects compared to Leuprolide or GnRH [1]: 7- to 7.5 fold

Compound: CCCCCCCCCCCCCCCC(=O)N[C@@H](CCC(=O)O)C(=O)N[C@@H](Cc1c[nH]cn1)C(=O)N[C@@H](Cc1c[nH]c2ccccc12)C(=O)N[C@@H](CO)C(=O)N[C@@H](Cc1ccc(O)cc1)C(=O)N[C@H](CC(C)C)C(=O)N[C@@H](CC(C)C)C(=O)N[C@@H](CCCNC(=N)N)C(=O)N1CCC[C@H]1C(=O)NCC [Derivative P3, Palmitate-Glu-His-Trp-Ser-Tyr-DLeu-Leu-Arg-Pro-NHEt] (Palmitoyl-EHWSY[dL]LRP-NHEt)
fold greater cytotoxic effects compared to Leuprolide or GnRH [1]: 7- to 7.5 fold

level at 504 h ([2]; female, SD, blood, sc, 12.5 mg/kg, s.c. once 12.5 mg/kg, 21 days): 1.26 ng/mL | CL (clearance rate) ([2]; s.c. once 12.5 mg/kg): 0.075 (mg/kg)/(ng/ml)/day | Vd (volume of distribution) ([2]; s.c. once 12.5 mg/kg): 0.436 (mg/kg)/(ng/ml)
Compound: CCCCCCCCCCCCCCCC(=O)N[C@@H](CCC(N)=O)C(=O)N[C@@H](Cc1c[nH]cn1)C(=O)N[C@@H](Cc1c[nH]c2ccccc12)C(=O)N[C@@H](CO)C(=O)N[C@@H](Cc1ccc(O)cc1)C(=O)N[C@H](CC(C)C)C(=O)N[C@@H](CC(C)C)C(=O)N[C@@H](CCCNC(=N)N)C(=O)N1CCC[C@H]1C(=O)NCC [Derivative P4, Palmitate-Gln-His-Trp-Ser-Tyr-DLeu-Leu-Arg-Pro-NHEt] (Palmitoyl-QHWSY[dL]LRP-NHEt)

Compound: CC(C)C[C@H](NC(=O)CNC(=O)[C@H](Cc1ccc(O)cc1)NC(=O)[C@H](CO)NC(=O)[C@H](Cc1c[nH]c2ccccc12)NC(=O)[C@H](Cc1cnc[nH]1)NC(=O)[C@@H]1CCC(=O)N1)C(=O)N[C@@H](CCCNC(=N)N)C(=O)N1CCC[C@H]1C(=O)NCC(N)=O [GnRH]
in vivo half-life in circulating blood [3]: 2 to 4 min

AUC(0-t) [2, 5]: 1660 ng·h/mL | Cmax [2, 5]: 1020 ng/mL | Tmax [2, 5]: 28.8 min | half-life [2, 5]: 43.2 min | level at 0.5 h [2, 6]: 1020 ng/mL | level at 1 h [2, 6]: 769 ng/mL | level at 2 h [2, 6]: 228 ng/mL | level at 6 h [2, 6]: 2.88 ng/mL | CL (clearance rate) ([2]; in vivo, sc, 12.5 mg/kg): 0.180 (mg/kg)/(ng/ml)/day | Vd (volume of distribution) ([2]; in vivo, sc, 12.5 mg/kg): 0.007 (mg/kg)/(ng/ml)
Compound: CCNC(=O)[C@@H]1CCCN1C(=O)[C@H](CCCNC(=N)N)NC(=O)[C@H](CC(C)C)NC(=O)[C@@H](CC(C)C)NC(=O)[C@H](Cc1ccc(O)cc1)NC(=O)[C@H](CO)NC(=O)[C@H](Cc1c[nH]c2ccccc12)NC(=O)[C@H](Cc1c[nH]cn1)NC(=O)[C@@H]1CCC(=O)N1 [Leuprolide, pyroGlu-His-Trp-Ser-Tyr-DLeu-Leu-Arg-Pro-NHEt, reference compound]
cell death rate on prostate cancer cells ([1]; DU-145 cells): about 10%

Compound: dexamethasone palmitate
anti-inflammatory effect, fold higher than dexamethasone alone [4]: 5.6 fold
